Series [1] relates to Mus musculus. Kind of series: Increase in survival of subcutaneously dosed NMRI mouse irradiated with cobalt 60 gamma relative to control. In kind it is functional, organism-based.
Series [2] concerns Mus musculus. Kind of series: Survival of NMRI mouse for 30 days at 214 mg/kg, sc administered 24 hrs before cobalt 60 gamma irradiation. The following applies: light or radiation study, route subcutaneous. In kind it is functional.
Series [3] has as its system Mus musculus. Kind of series: Survival of NMRI mouse subcutaneously dosed 30 mins before cobalt 60 gamma irradiation. In kind it is functional.
Series [4] relates to Mus musculus. As to the kind of experiment: Survival of NMRI mouse for 30 days at 142 mg/kg, sc administered 24 hrs before cobalt 60 gamma irradiation. To be noted: light or radiation study, route subcutaneous. In kind it is functional.
Series [5] relates to Mus musculus. As to the kind of experiment: Survival of NMRI mouse for 30 days at 71 mg/kg, sc administered 24 hrs before cobalt 60 gamma irradiation. In kind it is functional. To be noted: light or radiation study, route subcutaneous.
The nature of series [6]: Toxicity in subcutaneously injected NMRI mouse. In kind it is organism-based. The following applies: in vivo, sc.

Experimental findings from ChEMBL document CHEMBL1146266, “Kojic acid and its manganese and zinc complexes as potential radioprotective agents” (Bioorg Med Chem Lett, 2007) are described below.

Molecules are shown by their SMILES. Active and inactive are the calls of the source. The rule behind the calls is not given here.

As to `NCCCNCCSP(=O)(O)O` [AMIFOSTINE], the outcome with Mus musculus [1] was Active. The compound also displayed a survival at 214 mg/kg in the series on Mus musculus [2] of 81%. This compound showed a Survival with Mus musculus [3] of 90%.
As for `O=c1cc(CO)occ1O` [KOJIC ACID], in the series on Mus musculus [1], the outcome was Active. The compound also had a survival at 142 mg/kg in the series with Mus musculus [4] of 63%. In addition, the survival at 71 mg/kg with Mus musculus [5] stood at 28%. This compound also showed an LD50 in series [6] of 1400 mg/kg.
